Data taken from article PMC11766267 (International Journal of Molecular Sciences, 2025).
Where “and” joins values, the source holds several entries; their conditions need not be identical. Equal values may be shown once. Read-outs that look alike come from different tables or passages of the source.

Key:
HCT-116 = experiment: MTT cytotoxicity assay, HCT-116; format: cell-based; conditions: Homo sapiens, 24 h treatment, mean ± SD of triplicate
Method in brief: (§1)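 MTT read-out; insoluble formazan dissolved in 100 µL dimethyl sulfoxide before measurement.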

MDA-MB-231 = experiment: MTT cytotoxicity assay, MDA-MB-231; format: cell-based; conditions: Homo sapiens, 24 h treatment, mean ± SD of triplicate
Method in brief: as §1

HeLa = experiment: MTT cytotoxicity assay, HeLa; format: cell-based; conditions: Homo sapiens, 24 h treatment, mean ± SD of triplicate
Method in brief: as §1

MCF-7 [1] = experiment: MTT cytotoxicity assay, MCF-7; format: cell-based, human; conditions: Homo sapiens, MCF7, 24 h, 24 h treatment, mean ± SD of triplicate
Method in brief: as §1

[2] = MTT cytotoxicity assay, normal cell line WI-38; format: cell-based, human; conditions: human, WI-38 cells (normal human lung fibroblasts), normal (non-cancer) cell line, 24 h treatment
Method in brief: as §1

[3] = system: HCT-116, MDA-MB-231, HeLa, and MCF-7; experiment: MTT cytotoxicity assay, ranges stated over several cell lines; format: cell-based; conditions: Homo sapiens, range over the compounds named
Method in brief: as §1

[4] = target: T1, aromatase (CYP19A, EC 1.14.14.14) (Homo sapiens, UniProt P11511); experiment: biochemical
T1 construct: Microsomal samples were isolated from tissue using the Microsome Isolation Kit; tissue BioVision K983-100; host or cells: microsomes from an unnamed tissue
T1 sequence (P11511 1-503): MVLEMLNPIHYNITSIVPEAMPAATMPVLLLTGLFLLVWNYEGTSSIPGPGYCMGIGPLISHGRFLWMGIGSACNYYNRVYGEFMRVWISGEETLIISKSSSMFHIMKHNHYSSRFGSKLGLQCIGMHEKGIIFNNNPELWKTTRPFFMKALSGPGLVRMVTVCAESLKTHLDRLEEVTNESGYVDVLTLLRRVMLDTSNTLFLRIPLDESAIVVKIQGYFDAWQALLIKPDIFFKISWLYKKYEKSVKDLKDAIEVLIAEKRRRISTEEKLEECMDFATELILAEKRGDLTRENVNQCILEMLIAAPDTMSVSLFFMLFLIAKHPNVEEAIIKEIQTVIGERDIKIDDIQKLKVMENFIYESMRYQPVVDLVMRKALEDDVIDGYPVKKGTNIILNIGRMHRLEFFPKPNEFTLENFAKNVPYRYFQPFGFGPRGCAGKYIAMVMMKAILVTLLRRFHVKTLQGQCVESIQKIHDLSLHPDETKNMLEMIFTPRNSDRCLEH

MCF-7 [5] = experiment: In vitro anti-estrogenic activity assay, MCF-7
MCF-7a = experiment: In vitro anti-estrogenic activity assay, MCF-7a
EGFR = EGFR (Homo sapiens, UniProt P00533); experiment: In vitro protein kinase inhibition assay (ELISA kit), EGFR
HER2 = HER2 (Homo sapiens, UniProt P04626); experiment: In vitro protein kinase inhibition assay (ELISA kit), HER2
CDK2 = CDK2 (Homo sapiens, UniProt P24941); experiment: In vitro protein kinase inhibition assay (ELISA kit), CDK2
VEGFR-2 = VEGFR-2 (Homo sapiens, UniProt P35968); experiment: In vitro protein kinase inhibition assay (ELISA kit), VEGFR-2
[6] = cell count relative to the control (17β-E2)

Chain of EGFR (P00533 25-1210): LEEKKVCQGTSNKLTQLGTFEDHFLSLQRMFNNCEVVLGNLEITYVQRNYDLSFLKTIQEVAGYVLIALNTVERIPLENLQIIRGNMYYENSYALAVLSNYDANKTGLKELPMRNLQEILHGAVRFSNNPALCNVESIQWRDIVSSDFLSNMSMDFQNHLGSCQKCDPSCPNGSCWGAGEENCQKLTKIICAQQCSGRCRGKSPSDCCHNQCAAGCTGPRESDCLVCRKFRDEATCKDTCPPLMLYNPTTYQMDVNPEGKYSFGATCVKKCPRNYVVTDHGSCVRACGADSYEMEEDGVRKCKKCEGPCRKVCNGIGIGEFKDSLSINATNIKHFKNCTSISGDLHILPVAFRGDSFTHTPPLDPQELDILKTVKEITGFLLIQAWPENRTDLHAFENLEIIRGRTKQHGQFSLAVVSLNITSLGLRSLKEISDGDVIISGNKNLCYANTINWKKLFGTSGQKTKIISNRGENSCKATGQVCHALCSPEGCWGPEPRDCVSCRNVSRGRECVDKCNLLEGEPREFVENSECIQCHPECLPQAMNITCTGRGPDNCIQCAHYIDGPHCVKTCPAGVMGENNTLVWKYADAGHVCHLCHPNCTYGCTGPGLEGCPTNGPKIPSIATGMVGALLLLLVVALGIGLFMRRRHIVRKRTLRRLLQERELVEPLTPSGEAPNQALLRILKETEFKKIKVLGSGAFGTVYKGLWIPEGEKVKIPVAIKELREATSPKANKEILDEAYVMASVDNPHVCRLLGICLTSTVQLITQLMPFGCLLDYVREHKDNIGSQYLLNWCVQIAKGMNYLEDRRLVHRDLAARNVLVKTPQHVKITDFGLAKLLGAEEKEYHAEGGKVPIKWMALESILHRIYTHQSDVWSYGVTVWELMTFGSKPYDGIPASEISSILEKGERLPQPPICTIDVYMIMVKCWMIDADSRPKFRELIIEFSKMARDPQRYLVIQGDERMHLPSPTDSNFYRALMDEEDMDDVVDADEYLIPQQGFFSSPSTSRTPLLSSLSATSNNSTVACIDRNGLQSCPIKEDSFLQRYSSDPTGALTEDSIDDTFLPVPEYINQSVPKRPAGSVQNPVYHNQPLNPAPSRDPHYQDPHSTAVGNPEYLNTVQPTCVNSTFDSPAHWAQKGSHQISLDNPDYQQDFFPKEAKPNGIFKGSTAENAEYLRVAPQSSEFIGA
Chain of VEGFR-2 (P35968 20-1356): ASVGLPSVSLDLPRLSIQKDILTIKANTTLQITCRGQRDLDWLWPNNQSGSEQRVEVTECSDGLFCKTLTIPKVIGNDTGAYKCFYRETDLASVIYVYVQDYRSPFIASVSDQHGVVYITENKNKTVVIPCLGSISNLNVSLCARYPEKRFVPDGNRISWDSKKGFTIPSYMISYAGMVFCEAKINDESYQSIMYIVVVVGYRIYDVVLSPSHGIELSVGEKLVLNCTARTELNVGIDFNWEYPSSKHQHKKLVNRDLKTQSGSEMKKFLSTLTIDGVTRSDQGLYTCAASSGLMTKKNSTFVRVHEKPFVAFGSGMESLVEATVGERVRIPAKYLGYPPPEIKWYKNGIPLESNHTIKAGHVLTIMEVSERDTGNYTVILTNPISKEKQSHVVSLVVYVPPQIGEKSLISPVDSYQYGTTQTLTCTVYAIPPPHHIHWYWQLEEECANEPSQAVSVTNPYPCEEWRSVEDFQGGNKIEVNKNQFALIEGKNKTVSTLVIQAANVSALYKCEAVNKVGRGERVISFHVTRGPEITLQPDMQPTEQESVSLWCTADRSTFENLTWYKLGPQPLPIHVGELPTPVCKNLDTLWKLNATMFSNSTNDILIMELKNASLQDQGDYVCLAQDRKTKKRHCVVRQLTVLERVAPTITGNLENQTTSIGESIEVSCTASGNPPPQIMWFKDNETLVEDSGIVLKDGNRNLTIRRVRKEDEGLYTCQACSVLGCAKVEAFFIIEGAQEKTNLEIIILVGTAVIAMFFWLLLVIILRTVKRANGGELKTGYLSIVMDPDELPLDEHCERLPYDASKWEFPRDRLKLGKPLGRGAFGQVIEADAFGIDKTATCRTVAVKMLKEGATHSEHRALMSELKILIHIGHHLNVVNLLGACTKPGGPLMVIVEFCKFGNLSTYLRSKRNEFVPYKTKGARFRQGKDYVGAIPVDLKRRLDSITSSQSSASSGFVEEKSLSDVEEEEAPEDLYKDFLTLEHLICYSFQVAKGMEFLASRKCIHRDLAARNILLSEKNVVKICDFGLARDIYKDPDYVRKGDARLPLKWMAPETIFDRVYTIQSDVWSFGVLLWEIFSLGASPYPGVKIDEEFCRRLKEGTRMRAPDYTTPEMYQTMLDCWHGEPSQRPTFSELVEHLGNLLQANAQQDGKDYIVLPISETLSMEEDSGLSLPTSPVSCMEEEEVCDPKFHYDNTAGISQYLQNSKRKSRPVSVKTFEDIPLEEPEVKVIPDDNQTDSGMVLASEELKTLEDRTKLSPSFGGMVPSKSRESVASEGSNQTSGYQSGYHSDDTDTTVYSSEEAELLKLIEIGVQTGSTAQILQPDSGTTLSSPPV
Chain of HER2 (P04626 23-1255): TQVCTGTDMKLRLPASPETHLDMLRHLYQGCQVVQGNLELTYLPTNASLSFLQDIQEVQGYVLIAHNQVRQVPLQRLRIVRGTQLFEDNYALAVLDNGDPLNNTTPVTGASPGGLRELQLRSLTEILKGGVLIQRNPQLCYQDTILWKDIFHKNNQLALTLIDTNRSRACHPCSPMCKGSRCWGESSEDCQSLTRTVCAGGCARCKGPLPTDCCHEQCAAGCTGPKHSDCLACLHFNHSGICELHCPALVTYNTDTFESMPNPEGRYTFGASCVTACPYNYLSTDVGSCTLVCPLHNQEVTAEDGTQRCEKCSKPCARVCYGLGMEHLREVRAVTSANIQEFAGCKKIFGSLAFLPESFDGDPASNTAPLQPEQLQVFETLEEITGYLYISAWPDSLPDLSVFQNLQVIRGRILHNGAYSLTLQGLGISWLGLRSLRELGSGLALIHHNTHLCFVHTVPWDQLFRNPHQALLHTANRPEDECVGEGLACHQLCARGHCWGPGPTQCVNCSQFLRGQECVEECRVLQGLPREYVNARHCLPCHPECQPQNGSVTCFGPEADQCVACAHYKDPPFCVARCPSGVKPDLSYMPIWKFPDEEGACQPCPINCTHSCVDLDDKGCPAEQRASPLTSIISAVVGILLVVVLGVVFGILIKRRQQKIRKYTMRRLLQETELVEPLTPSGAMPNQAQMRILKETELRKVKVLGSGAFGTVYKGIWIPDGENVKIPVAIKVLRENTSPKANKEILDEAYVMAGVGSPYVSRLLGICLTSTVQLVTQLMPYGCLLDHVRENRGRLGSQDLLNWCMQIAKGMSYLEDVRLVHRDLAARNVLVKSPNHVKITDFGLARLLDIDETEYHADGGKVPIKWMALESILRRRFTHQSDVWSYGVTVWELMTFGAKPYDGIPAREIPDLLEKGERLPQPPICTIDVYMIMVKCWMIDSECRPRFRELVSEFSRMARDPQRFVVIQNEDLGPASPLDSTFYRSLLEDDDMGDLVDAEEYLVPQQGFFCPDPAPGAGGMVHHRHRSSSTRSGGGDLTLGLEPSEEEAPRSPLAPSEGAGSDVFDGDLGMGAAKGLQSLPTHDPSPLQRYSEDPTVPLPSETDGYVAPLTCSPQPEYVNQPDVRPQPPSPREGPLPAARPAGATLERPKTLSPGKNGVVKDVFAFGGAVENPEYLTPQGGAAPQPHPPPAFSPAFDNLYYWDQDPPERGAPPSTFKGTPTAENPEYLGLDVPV

COc1cccc(C(=O)/C=C/c2ccc(OCc3ccccc3)cc2)c1 [Compound 4q, (E)-3-(4-(Benzyloxy)phenyl)-1-(3-methoxyphenyl)prop-2-en-1-one]
IC50 (HCT-116): 17.1 ± 1.3 µM | IC50 (MDA-MB-231): 13.6 ± 1.1 µM | IC50 (HeLa): 22.6 ± 1.7 µM | IC50 (MCF-7 [1]): 11.6 ± 0.9 µM | IC50 at 24 h [2]: > 100 µM | IC50 ([3]; HCT-116 and HeLa, read-out: IC50 values, range against HCT-116 and HeLa): 6590 to 22600 nM | IC50 ([3]; MDA-MB-231 and MCF-7, read-out: IC50 values, range against MDA-MB-231 and MCF-7): 2080 to 13600 nM | Inhibition (%) Aromatase ([4]; 0.01 µM, individual Data 1-3): 6.6% and 8.9% | Inhibition (%) Aromatase ([4]; 0.1 µM, individual Data 1-3): 17.9% and 20.7% | Inhibition (%) Aromatase ([4]; 1 µM, individual Data 1-3): 54% and 53.8% | Inhibition (%) Aromatase ([4]; 10 µM, individual Data 1-3): 81.5% and 83.9% | Inhibition (%) Aromatase ([4]; 100 µM, individual Data 1-3): 91.6% and 93.8% | IC50 ([4]; mean ± SD of triplicate, approximate values, read-out: Aromatase Inhibition IC50): 901 nM and 801 nM | inhibition at 0.01 µM ([4]; read-out: Inhibition (%) Aromatase, 0.01 µM, individual Data 1-3): 7.8% | inhibition at 0.1 µM ([4]; read-out: Inhibition (%) Aromatase, 0.1 µM, individual Data 1-3): 19% | inhibition at 1 µM ([4]; read-out: Inhibition (%) Aromatase, 1 µM, individual Data 1-3): 55.9% | inhibition at 10 µM ([4]; read-out: Inhibition (%) Aromatase, 10 µM, individual Data 1-3): 82% | inhibition at 100 µM ([4]; read-out: Inhibition (%) Aromatase, 100 µM, individual Data 1-3): 92% | Cell Proliferation MCF-7 % (MCF-7 [5]; [6]): 37% | Cell Proliferation MCF-7 Cell Count (MCF-7 [5]; mean ± SD of triplicate): 6874 ± 245 | Reduction of growth/cell count (inhibition) in MCF-7 (MCF-7 [5]; relative to control): 63% | Cell Proliferation MCF-7a % (MCF-7a; [6]): 99% | Cell Proliferation MCF-7a Cell Count (MCF-7a; mean ± SD of triplicate): 20,630 ± 595 | Inhibition in MCF-7a (MCF-7a; relative to control): 1% | IC50 (EGFR): 151 ± 5 nM | Inhibition (%) EGFR (EGFR; 0.01 µM, individual Data 1-3): 22.9% and 24.2% | Inhibition (%) EGFR (EGFR; 0.1 µM, individual Data 1-3): 45.2% and 47.5% | Inhibition (%) EGFR (EGFR; 1 µM, individual Data 1-3): 71.9% and 70.2% | Inhibition (%) EGFR (EGFR; 10 µM, individual Data 1-3): 86.9% and 90% | Inhibition (%) EGFR (EGFR; 100 µM, individual Data 1-3): 95.6% and 97.9% | inhibition at 0.01 µM (EGFR; read-out: Inhibition (%) EGFR, 0.01 µM, individual Data 1-3): 23.4% | inhibition at 0.1 µM (EGFR; read-out: Inhibition (%) EGFR, 0.1 µM, individual Data 1-3): 46.8% | inhibition at 1 µM (EGFR; read-out: Inhibition (%) EGFR, 1 µM, individual Data 1-3): 72% | inhibition at 10 µM (EGFR; read-out: Inhibition (%) EGFR, 10 µM, individual Data 1-3): 88.4% | inhibition at 100 µM (EGFR; read-out: Inhibition (%) EGFR, 100 µM, individual Data 1-3): 96.3% | IC50 (HER2): ~144 nM | Inhibition (%) Her2 (HER2; 0.01 µM, individual Data 1-3): 25% and 25.9% | Inhibition (%) Her2 (HER2; 0.1 µM, individual Data 1-3): 47.70% and 48.76% | Inhibition (%) Her2 (HER2; 1 µM, individual Data 1-3): 68.30% and 69.5% | Inhibition (%) Her2 (HER2; 10 µM, individual Data 1-3): 86.89% and 87.78% | Inhibition (%) Her2 (HER2; 100 µM, individual Data 1-3): 95.7% and 96.9% | inhibition at 0.1 µM (HER2; read-out: Inhibition % at 0.1 µM HER2, 0.1 µM, the data between the highest and lowest values): 48% | inhibition at 0.01 µM (HER2; read-out: Inhibition (%) Her2, 0.01 µM, individual Data 1-3): 25.6% | inhibition at 0.1 µM (HER2; read-out: Inhibition (%) Her2, 0.1 µM, individual Data 1-3): 48% | inhibition at 1 µM (HER2; read-out: Inhibition (%) Her2, 1 µM, individual Data 1-3): 68.9% | inhibition at 10 µM (HER2; read-out: Inhibition (%) Her2, 10 µM, individual Data 1-3): 87.3% | inhibition at 100 µM (HER2; read-out: Inhibition (%) Her2, 100 µM, individual Data 1-3): 96.2% | IC50 (CDK2): ~170 nM | Inhibition (%) CDK2 (CDK2; 0.01 µM, individual Data 1-3): 24.8% and 25.2% | Inhibition (%) CDK2 (CDK2; 0.1 µM, individual Data 1-3): 41.7% and 42.2% | Inhibition (%) CDK2 (CDK2; 1 µM, individual Data 1-3): 70.9% and 71.2% | Inhibition (%) CDK2 (CDK2; 10 µM, individual Data 1-3): 87.8% and 88.3% | Inhibition (%) CDK2 (CDK2; 100 µM, individual Data 1-3): 96% and 96.6% | inhibition at 0.1 µM (CDK2; read-out: Inhibition % at 0.1 µM CDK2, 0.1 µM, the data between the highest and lowest values): 41.9% | inhibition at 0.01 µM (CDK2; read-out: Inhibition (%) CDK2, 0.01 µM, individual Data 1-3): 25.1% | inhibition at 0.1 µM (CDK2; read-out: Inhibition (%) CDK2, 0.1 µM, individual Data 1-3): 41.9% | inhibition at 1 µM (CDK2; read-out: Inhibition (%) CDK2, 1 µM, individual Data 1-3): 71.1% | inhibition at 10 µM (CDK2; read-out: Inhibition (%) CDK2, 10 µM, individual Data 1-3): 88.1% | inhibition at 100 µM (CDK2; read-out: Inhibition (%) CDK2, 100 µM, individual Data 1-3): 96.3% | IC50 (VEGFR-2): 287 ± 10 nM | Inhibition (%) VEGFR2 (VEGFR-2; 0.01 µM, individual Data 1-3): 16.9% | Inhibition (%) VEGFR2 (VEGFR-2; 0.1 µM, individual Data 1-3): 38.9% and 39.1% | Inhibition (%) VEGFR2 (VEGFR-2; 1 µM, individual Data 1-3): 66.7% and 66.4% | Inhibition (%) VEGFR2 (VEGFR-2; 10 µM, individual Data 1-3): 87.1% and 87.6% | Inhibition (%) VEGFR2 (VEGFR-2; 100 µM, individual Data 1-3): 95.4% and 95.9% | inhibition at 0.01 µM (VEGFR-2; read-out: Inhibition (%) VEGFR2, 0.01 µM, individual Data 1-3): 17% | inhibition at 0.1 µM (VEGFR-2; read-out: Inhibition (%) VEGFR2, 0.1 µM, individual Data 1-3): 39% | inhibition at 1 µM (VEGFR-2; read-out: Inhibition (%) VEGFR2, 1 µM, individual Data 1-3): 66.8% | inhibition at 10 µM (VEGFR-2; read-out: Inhibition (%) VEGFR2, 10 µM, individual Data 1-3): 87.3% | inhibition at 100 µM (VEGFR-2; read-out: Inhibition (%) VEGFR2, 100 µM, individual Data 1-3): 95.7%
